Laboratory results taken from patent US20050042213A1, “Methods and pharmaceutical compositions for modulating heparanase activation and uses thereof” (InSight Biopharmaceuticals Ltd., priority 2003, published 2005).

Assays:
pro-heparanase (H60) [1] = target: T1, pro-heparanase (H60) (Homo sapiens, UniProt Q9Y251, K307R); test: Pro-heparanase activation in a cell-based assay (293 cells, DMB assay); conditions: inhibition of pro-heparanase activation (H60); Table 15
T1 sequence (Q9Y251 36-543 K307R): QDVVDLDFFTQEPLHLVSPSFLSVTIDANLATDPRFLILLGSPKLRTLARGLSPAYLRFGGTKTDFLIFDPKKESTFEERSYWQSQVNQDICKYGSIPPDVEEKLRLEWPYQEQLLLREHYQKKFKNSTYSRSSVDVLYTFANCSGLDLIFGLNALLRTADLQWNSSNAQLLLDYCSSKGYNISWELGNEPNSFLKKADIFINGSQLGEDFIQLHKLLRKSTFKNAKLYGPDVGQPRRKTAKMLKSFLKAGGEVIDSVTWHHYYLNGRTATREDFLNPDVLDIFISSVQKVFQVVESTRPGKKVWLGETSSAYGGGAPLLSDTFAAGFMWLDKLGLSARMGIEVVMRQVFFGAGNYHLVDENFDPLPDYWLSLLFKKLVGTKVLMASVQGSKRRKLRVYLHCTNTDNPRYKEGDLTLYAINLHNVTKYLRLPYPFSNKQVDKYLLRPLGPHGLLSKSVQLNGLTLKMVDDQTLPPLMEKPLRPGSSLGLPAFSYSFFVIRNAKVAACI

[2] = target: T2, pro-heparanase transiently expressed in 293 cells (Homo sapiens, UniProt Q9Y251, K307R); test: Pro-heparanase processing in transiently transfected 293 cells (Western blot); assay type: cell-based
T2 sequence (Q9Y251 36-543 K307R): T1 sequence (Q9Y251 36-543 K307R)
Description: Western blot analysis—Western blot analysis was performed using rabbit anti-heparanase polyclonal antibodies as described in U.S. Pat. Nos. 6,177,545; 6,531,129; and 6,562,950.
Transient transfections—293 cells (200,000) were plated onto a 6 well tissue culture plate. 24 hrs later, the cells were transfected with 1 μg pSI (Promega) hpa plasmid (U.S. Pat. No. 6,475,763) in 3 μl Fugene reagent that was pre-incubated for 15 min in 100 μl medium without serum. Cells were treated with inhibitors 4 and 17 hrs following transfection.

heparanase (H53) = target: T3, heparanase (H53) (Homo sapiens, UniProt Q9Y251, K307R); test: Heparanase activity inhibition (H53), DMB assay; assay type: biochemical
T3 sequence (Q9Y251 158-543 K307R limits assumed): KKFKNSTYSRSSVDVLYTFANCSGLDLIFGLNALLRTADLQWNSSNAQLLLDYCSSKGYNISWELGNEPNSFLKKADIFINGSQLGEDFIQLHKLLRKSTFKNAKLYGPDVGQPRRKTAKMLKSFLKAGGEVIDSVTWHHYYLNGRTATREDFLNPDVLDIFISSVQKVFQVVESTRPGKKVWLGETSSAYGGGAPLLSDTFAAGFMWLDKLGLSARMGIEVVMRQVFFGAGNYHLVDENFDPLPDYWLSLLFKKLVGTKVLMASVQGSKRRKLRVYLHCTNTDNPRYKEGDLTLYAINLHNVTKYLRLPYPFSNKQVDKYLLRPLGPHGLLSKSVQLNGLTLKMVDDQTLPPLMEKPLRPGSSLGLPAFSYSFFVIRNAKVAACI
T3 sequence (Q9Y251 36-109 limits assumed): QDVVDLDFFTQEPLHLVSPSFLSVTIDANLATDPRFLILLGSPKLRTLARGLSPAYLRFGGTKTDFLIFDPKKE
Description: At the end of the incubation, the cells were lysed by three consecutive cycles of freezing and thawing in a −80° C. Freezer and a 37° C. shaker. Formation of active heparanase was detected by determination of heparanase activity in DMB assay as described in patent application U.S. Pat. No. 6,190,875B.

pro-heparanase (H60) [3] = target: T1, pro-heparanase (H60); test: Surface plasmon resonance, interaction with the pro-heparanase polypeptide; assay type: binding; conditions: data not shown
HT1080 cells = test: In vitro assay of invasion inhibition (matrigel, BD BioCoat); assay type: cell-based; conditions: Homo sapiens, HT-1080
Description: In vitro assay of invasion inhibition—The ability of the compounds of the invention to inhibit cell invasion was determined quantitatively by the in vitro Endothelial Cell Migration assay using a BD BioCoat Angiogenesis System kit. The kit consisted of a 24-multiwell insert plate (FluoroBlok, BD Falcon) containing a microporous (3.0 μm pore size) polyethylene terephthalate (PET) membrane that was capable of blocking fluorescence completely (>99% efficiency). This membrane was uniformly coated with matrigel (BD Matrigel Matrix). The uniform layer of matrigel matrix served as a reconstituted authentic basement membrane in vitro, providing a true barrier to non-invasive cells, but allowing endothelial cells to attach to the membrane and freely migrate towards an angiogenic stimulus in the lower chamber of the insert plate. Post-labeling the cells with a fluorescent dye and measuring the fluorescence of invading cells in a fluorescent plate reader, provided quantitative measurement of cell invasion.
To cover the optimal seeding density for HT1080 cells, suspensions containing various cell concentrations were prepared: 1 ml of 3×10^5 cells/ml, 8 ml of 1.5×10^5 cells/ml and 1 ml of 0.75×10^5 cells/ml. […] Only those labeled cells that have invaded the matrigel and passed through the pores of the PET membrane, were detected.

HUVEC cells = test: Cord Formation Assay; assay type: cell-based; conditions: Homo sapiens; HUVEC cells on matrigel, 24 h; read-out: Inhibition of cord formation IC50
Description: Cord formation and cell migration assays were executed following explicit directives provided by the inventors of the present invention by the National Cancer Institute (Biological Testing Branch, Developmental Therapeutics Program, DCTD, NCI, Fairview Center, Suite 205, 1003 West 7th Street, Frederick, Md. 21701-8527).
Cord Formation Assay—Matrigel (60 μl of 10 mg/ml; Collaborative Lab # 35423) was placed in each well of an ice-cold 96-well plate. The plate was incubated at room temperature for 15 minutes and then transferred to 37° C. for 30 minutes to permit matrigel polymerization. Concomitantly with plate coating, HUVEC cells were diluted in EGM-2 (Clonetic # CC3162) at a concentration of 2×10^5 cells/ml. Each test compound was prepared at a 2 fold higher concentration than desired (5 concentration levels) using the same medium. Cells (500 μl) and 2× drug (500 μl) were mixed and 200 μl of this suspension were placed in duplicates on the polymerized matrigel. Following 24 h incubation, triplicate pictures were taken for each concentration using a Bioquant Image Analysis system. Drug effect (IC50) was assessed by comparing to untreated controls and measuring the length of cords formed and number of junctions.

## O=C(O)CCCN1C(=O)C(=Cc2ccc(-c3ccc([N+](=O)[O-])cc3)o2)SC1=S [Compound 5]
pro-heparanase (H60) [1]
  IC50: 0.13 µM
[2]
  pro-heparanase expression: did not affect pro-heparanase expression
  pro-heparanase processing: completely inhibited pro-heparanase processing
Heparanase (H53)
  heparanase activity inhibition (H53) in addition to inhibition of pro-heparanase activation: dual activity
Heparanase (H53); heparanase activity inhibition (H53), NI = no inhibition
  IC50: 12.5 µM
pro-heparanase (H60) [3]
  binding to the H60 molecule: reversibly bind
HT1080 cells
  IC50: 12 µM
HUVEC cells
  IC50: 3.9 µM
